In DBAASP:
Converted amounts (≈) assume the structure as drawn. Each block holds one compound with its values, some of them ahead of it.

Experiments:
Assay in all cases: ≥ marks a high value that may be exact or a test limit, other limits are often not marked, values filed in µg/mL are converted to µM
[1] = system: Staphylococcus aureus HNCMO 112011
[2] = system: Escherichia coli ATCC 8739
[3] = system: Acinetobacter baumannii ATCC 17978
[4] = system: Staphylococcus hominis ATCC 27844
[5] = system: Staphylococcus aureus ATCC 6538
[6] = system: Enterococcus faecalis ATCC 2912
[7] = system: Pseudomonas aeruginosa ATCC 15442
[8] = system: Escherichia coli ATCC 25922
[9] = system: Candida albicans ATCC 10231
[10] = system: Staphylococcus aureus NBRC 12732
[11] = system: Escherichia coli NBRC 14237
[12] = system: Saccharomyces cerevisiae NBRC 10217
[13] = system: Staphylococcus aureus ATCC 25923
[14] = system: Pseudomonas aeruginosa ATCC 9027
[15] = system: Enterococcus faecalis PCM 2673
[16] = system: Staphylococcus xylosus DSM 20287
[17] = system: Bacillus subtilis DSM 347
[18] = system: Franconibacter helveticus DSM 18390
[19] = system: Escherichia coli DSM 1116
Citrobacter freundii = system: Citrobacter freundii
[20] = system: Staphylococcus haemolyticus
Klebsiella pneumoniae = system: Klebsiella pneumoniae
[21] = system: Salmonella enterica subsp. enterica serovar Paratyphi A
[22] = system: Candida albicans ATCC 36232
[23] = system: Micrococcus luteus ATCC 9341
[24] = system: Shigella flexneri ATCC 203
Staphylococcus aureus = system: Staphylococcus aureus
[25] = system: Escherichia coli ATCC 2592
[26] = system: Proteus vulgaris ATCC 6380
[27] = system: Staphylococcus epidermidis ATCC 12228
[28] = system: Staphylococcus epidermidis 154
[29] = system: Salmonella enterica subsp. enterica serovar Typhimurium C77-31
[30] = system: Salmonella enterica subsp. enterica serovar Typhi CMCC 50071
[31] = system: Staphylococcus aureus ATCC 29213
[32] = system: Salmonella enterica subsp. enterica serovar Typhimurium ATCC 14028
Escherichia coli UB1005 = system: Escherichia coli UB1005
[33] = system: Salmonella enterica subsp. enterica serovar Pullorum C79-13

Compound: CC[C@H](C)[C@H](NC(=O)[C@H](CCCCN)NC(=O)[C@H](CCCCN)NC(=O)[C@@H](NC(=O)[C@@H](NC(=O)[C@H](CC(=O)O)NC(=O)[C@H](Cc1ccccc1)NC(=O)[C@H](C)NC(=O)CN)[C@@H](C)CC)[C@@H](C)CC)C(=O)N[C@@H](C)C(=O)N[C@@H](CCC(=O)O)C(=O)N[C@@H](CO)C(=O)N[C@@H](Cc1ccccc1)C(N)=O [GAFDIIKKIAESF]
MIC [13]: > 356 µM
MIC [8]: 178 µM (≈ 256 µg/mL)
MIC [14]: 356 µM (≈ 512 µg/mL)
MIC [9]: 178 µM (≈ 256 µg/mL)
MIC [15]: ≥ 356 µM

Compound: CC[C@H](C)[C@H](N)C(=O)N[C@@H](C)C(=O)NCC(=O)N[C@@H](CCCCN)C(=O)N[C@H](C(=O)N[C@@H](C)C(=O)N[C@@H](CCCCN)C(=O)N[C@H](C(=O)N[C@@H](C)C(=O)NCC(=O)N[C@@H](CCCCN)C(=O)N[C@H](C(=O)N[C@@H](C)C(=O)N[C@@H](CCCCN)C(=O)N[C@H](C(=O)N[C@@H](C)C(=O)NCC(=O)N[C@@H](CCCCN)C(=O)N[C@H](C(=O)N[C@@H](C)C(N)=O)[C@@H](C)CC)[C@@H](C)CC)[C@@H](C)CC)[C@@H](C)CC)[C@@H](C)CC [IAGKIAKIAGKIAKIAGKIA]
MIC [16]: 2.07 µM (≈ 4 µg/mL)
MIC [17]: 1.46 µM (≈ 2.83 µg/mL)
MIC [18]: 2.92 µM (≈ 5.65 µg/mL)
MIC [19]: 4.13 µM (≈ 8 µg/mL)

Compound: CC(C)C[C@H](NC(=O)[C@H](Cc1ccc(O)cc1)NC(=O)[C@H](Cc1ccc(O)cc1)NC(=O)CNC(=O)[C@H](Cc1c[nH]c2ccccc12)NC(=O)[C@H](CO)NC(=O)[C@H](CO)NC(=O)[C@H](Cc1c[nH]c2ccccc12)NC(=O)[C@H](CC(C)C)NC(=O)[C@H](CCCCN)NC(=O)[C@@H](NC(=O)[C@@H](NC(=O)[C@H](CC(C)C)NC(=O)[C@@H](N)CC(=O)O)[C@@H](C)O)[C@@H](C)O)C(=O)NCC(=O)N[C@@H](CCCCN)C(=O)N[C@@H](CCCCN)C(=O)N[C@@H](C)C(=O)N[C@@H](CCCN=C(N)N)C(=O)N[C@@H](Cc1c[nH]c2ccccc12)C(=O)N[C@@H](CC(N)=O)C(=O)N[C@@H](CC(C)C)C(=O)N[C@@H](CCCCN)C(=O)N[C@@H](Cc1cnc[nH]1)C(=O)N1CCC[C@H]1C(=O)N[C@@H](Cc1ccc(O)cc1)C(=O)N[C@H](C(=O)N[C@@H](CCC(N)=O)C(=O)N[C@@H](Cc1ccccc1)C(=O)O)C(C)C [DLTTKLWSSWGYYLGKKARWNLKHPYVQF]
MIC [28]: 25 µM (≈ 89.7 µg/mL)
MIC [27]: 12.5 µM (≈ 44.8 µg/mL)

Compound: CSCC[C@H](NC(=O)[C@H](CCCN=C(N)N)NC(=O)[C@H](Cc1c[nH]c2ccccc12)NC(=O)[C@H](CCC(N)=O)NC(=O)[C@H](Cc1c[nH]c2ccccc12)NC(=O)[C@H](CCCN=C(N)N)NC(=O)[C@H](CCCN=C(N)N)NC(=O)[C@H](CS)NC(=O)[C@@H](N)CCCCN)C(=O)N[C@@H](CCCCN)C(=O)N[C@@H](CCCCN)C(N)=O [KCRRWQWRMKK]
MIC [29]: ≥ 128 µM
MIC [13]: 128 µM (≈ 205 µg/mL)
MIC [30]: ≥ 128 µM
MIC [31]: > 128 µM
MIC [32]: > 128 µM
MIC (Escherichia coli UB1005): ≥ 128 µM
MIC [27]: > 128 µM
MIC [33]: ≥ 128 µM

Further lines, with some results ahead:

MIC [1]: 25 µM (≈ 40.9 µg/mL)
MIC [2]: 25 µM (≈ 40.9 µg/mL)
MIC [3]: 25 µM (≈ 40.9 µg/mL)
Compound: CC(C)C[C@H](NC(=O)[C@@H]1CCCN1C(=O)[C@H](CCCN=C(N)N)NC(=O)[C@H](CCCN=C(N)N)NC(=O)[C@H](CS)NC(=O)[C@H](CCC(N)=O)NC(=O)[C@@H](N)CCC(N)=O)C(=O)N[C@@H](Cc1ccc(O)cc1)C(=O)N[C@@H](CS)C(=O)N[C@@H](CCCN=C(N)N)C(=O)N[C@@H](CCCN=C(N)N)C(=O)N[C@@H](CCCN=C(N)N)C(=O)O [QQCRRPLYCRRR]

MIC [4]: ≥ 40 µM
MIC [5]: 3.2 µM (≈ 4.65 µg/mL)
MIC [6]: ≥ 40 µM
MIC [7]: 13 µM (≈ 18.9 µg/mL)
MIC [8]: 13 µM (≈ 18.9 µg/mL)
MIC [9]: 3.2 µM (≈ 4.65 µg/mL)
Compound: CSCC[C@H](NC(=O)[C@H](CCC(N)=O)NC(=O)[C@H](CO)NC(=O)CNC(=O)[C@H](CCCCN)NC(=O)[C@@H](N)CCCN=C(N)N)C(=O)NCC(=O)N[C@@H](CCCCN)C(=O)N[C@@H](CCCCN)C(=O)N[C@@H](CS)C(=O)N[C@@H](CCC(=O)O)C(=O)N[C@@H](CS)C(=O)N1CCC[C@H]1C(=O)O [RKGSQMGKKCECP]

MIC [10]: 3.12 µM (≈ 6.25 µg/mL)
MIC [11]: 3.12 µM (≈ 6.25 µg/mL)
MIC [12]: 12.5 µM (≈ 25 µg/mL)
Compound: CC(C)C[C@H](NC(=O)[C@H](CO)NC(=O)[C@H](CO)NC(=O)[C@H](CCCN=C(N)N)NC(=O)[C@H](CCCN=C(N)N)NC(=O)[C@H](CCCN=C(N)N)NC(=O)[C@H](CO)NC(=O)[C@H](CC(C)C)NC(=O)[C@H](Cc1c[nH]c2ccccc12)NC(=O)[C@@H](N)Cc1c[nH]c2ccccc12)C(=O)N[C@@H](Cc1ccccc1)C(=O)N[C@@H](Cc1ccc(O)cc1)C(=O)N[C@@H](Cc1c[nH]c2ccccc12)C(=O)N[C@@H](CCCN=C(N)N)C(=O)O [WWLSRRRSSLFYWR]

MIC (Citrobacter freundii): 7.63 µM (≈ 12 µg/mL)
MIC (Klebsiella pneumoniae): 3.81 µM (≈ 6 µg/mL)
MIC [21]: 3.81 µM (≈ 6 µg/mL)
Compound: CC(C)C[C@H](NC(=O)[C@H](CCCCN)NC(=O)[C@H](CC(C)C)NC(=O)[C@H](CCCCN)NC(=O)[C@H](CS)NC(=O)[C@H](CC(C)C)NC(=O)[C@H](Cc1c[nH]c2ccccc12)NC(=O)CNC(=O)[C@H](CCCCN)NC(=O)[C@H](CS)NC(=O)[C@@H]1CCCN1C(=O)[C@@H](N)CCCCN)C(=O)N[C@@H](CCCN=C(N)N)C(=O)O [KPCKGWLCKLKLR]
MIC [20]: 1.91 µM (≈ 3 µg/mL)

MIC [22]: 0.601 µM (≈ 0.779 µg/mL)
MIC [5]: 2.4 µM (≈ 3.12 µg/mL)
MIC [14]: 2.4 µM (≈ 3.12 µg/mL)
MIC [23]: 0.601 µM (≈ 0.779 µg/mL)
MIC [24]: 2.4 µM (≈ 3.12 µg/mL)
MIC (Staphylococcus aureus): 4.81 µM (≈ 6.25 µg/mL)
MIC [25]: 2.4 µM (≈ 3.12 µg/mL)
MIC [26]: ≥ 77 µM
MIC [27]: 0.601 µM (≈ 0.779 µg/mL)
Compound: CC(C)[C@H](NC(=O)[C@H](CCCCN)NC(=O)[C@@H](N)CCCCN)C(=O)N[C@H](C(=O)N[C@@H](Cc1ccccc1)C(=O)N[C@@H](CCCCN)C(=O)N[C@@H](Cc1ccccc1)C(=O)N[C@@H](CCCCN)C(=O)N[C@@H](Cc1ccccc1)C(=O)N[C@@H](CCCCN)C(N)=O)C(C)C [KKVVFKFKFK]
